≈ marks a conversion by molar mass, not a printed value. Entries after “also recorded” stand apart in the source; their conditions may differ. Where two headings read alike, the source gives them in different places.
What was measured:
[1] = Study B multiple administrations of 150 mg/m^2: 17-AAG pharmacokinetics in plasma (HPLC); assay type: in vivo, dogs; conditions: dog, iv; for AUC(0-t) / Cmax / half-life: both sexes, plasma, dogs, mean ± SD; for AUC(0-t): 150 mg/m2, AUC 0–8 h, Study B; for Cmax / half-life: 150 mg/m2, Study B; for half-life: read-out: t ½ (converted); for Clearance / DV (distribution volume): in vivo
Description: (§1) Study B involved 9 healthy dogs (8 females and 1 male), including the 4 females from Study A after wash-out and upon confirmation of regular laboratory evaluations. […] Tolerability evaluations were performed via clinical examinations and blood sampling for laboratory evaluation after each treatment. For toxicity assessments, 4, 6, and 8 h after the final administration, the animals were euthanized for tissue collection and histopathological evaluation.
(§2) In Studies A and B, an intravenous catheter was placed in the cephalic vein of each animal’s right and left anterior limbs. […] Under both protocols, blood samples were centrifuged at 1500× g at 4 °C for 10 min.
(§3) For the mobile phase, acetonitrile (ACN, J.T.Baker®, Philadelphia, PA, USA) and water with 1% acetic acid (J.T.Baker®)were used. Briefly, aliquots of 200 µL of plasma or 100 µL of subcutaneous interstitial liquid were placed in a 1.5 mL microcentrifuge tube. Subsequently, 600 µL and 300 µL of ACN were added to all plasma and subcutaneous interstitial liquid samples, respectively. The mixture was vortexed for 30 s, followed by centrifugation at 3400× g for 10 min. Next, 500 µL of the plasma supernatant and 250 µL of the subcutaneous interstitial fluid were pipetted into a new vial. […] Data acquisition and processing were performed using LabSolutions software (Version 5.3).
(§4) Cmax, half-life (t ½), distribution volume, and clearance were also determined. Data were analyzed in Excel and WinNonlin using a mono-compartmental model.

[2] = Study A dose-escalation protocol: 17-AAG pharmacokinetics in plasma (HPLC); assay type: in vivo; conditions: dogs; for AUC / Cmax / half-life: female, dog; for AUC: AUC0–8h; for half-life: read-out: t½ (converted)
Description: as §2
as §3, with “vial. The method was validated in accordance with the International Council for Harmonization (ICH) technical requirements for the evaluation of medicinal products. […] No matrix interferences were observed. Two calibrated plasma curves of 17-AAG were validated with different injection volumes.” for “vial.”
as §4

healthy dogs = assay: Study B: histopathology of tissues after treatment; assay type: in vivo; conditions: nine dogs, three IV doses of 150 mg/m^2
Description: as §1
Hemograms were performed following blood collection.

[3] = cited from earlier work
[4] = design: method as in earlier work; conditions: mice with MCF-7 breast tumors, 40 mg/kg intravenous dose; ref National Institute of Cancer's guide, https://dtp.cancer.gov/timeline/posters/AGG_Geldamycin.pdf; cited from earlier work
[5] = Study B: 17-AAG pharmacokinetics in subcutaneous interstitial fluid (tissue cages, HPLC); assay type: in vivo; conditions: dogs; for AUC(0-t) / Cmax / half-life: both sexes, dog, subcutaneous interstitial fluid, iv, mean ± SD; for half-life: read-out: t ½ (converted)
Description: as §1
In Study B, samples of interstitial fluid were collected from tissue cages implanted subcutaneously in the dogs. These cages were prepared based on a protocol previously described by Stegemann et al.. They were made from non-toxic, siliconized, flexible, non-irritant PVC tubes with dimensions of 3.5 cm long, an internal diameter of 3 mm, and an external diameter of 5 mm. Three autoclaved cages were surgically implanted between the scapula of each animal under sedation (xylazine 2%, Syntec, Tambore, SP, Brazil) and local anesthesia (lidocaine 2% and epinephrine 0.002%, Syntec). Before and after surgical procedures, antibiotics (enrofloxacin–5 mg/Kg, Syntec) and an anti-inflammatory (ketoprofen 1%–1 mL/Kg, CEVA, Paulínia, SP, Brazil) drug were administered. To allow animals to heal, as well as the formation of the granulation tissue around the cages, a recovery time of 10 days after surgery was considered. The subcutaneous interstitial fluid was collected by percutaneous puncture using a 21 G needle and 20 mL syringe.
as §3, with “vial. The method was validated in accordance with the International Council for Harmonization (ICH) technical requirements for the evaluation of medicinal products. […] No matrix interferences were observed. Two calibrated plasma curves of 17-AAG were validated with different injection volumes.” for “vial.”
as §4

[6] = design: method as in PMID 22124669, PMID 20618337; conditions: humans; cited from earlier work
[7] = 1st of three IV administrations of 150 mg/m^2 at 48 h intervals
[8] = 2nd of three IV administrations of 150 mg/m^2 at 48 h intervals
[9] = 3rd of three IV administrations of 150 mg/m^2 at 48 h intervals
[10] = Study A, plasma, single IV dose 50 mg/m^2, mean ± SD
[11] = Study A, plasma, single IV dose 100 mg/m^2, mean ± SD
[12] = Study A, plasma, single IV dose 150 mg/m^2, mean ± SD
[13] = Study A, plasma, single IV dose 200 mg/m^2, mean ± SD
[14] = Study A, plasma, single IV dose 250 mg/m^2, mean ± SD
[15] = 50 mg/m2, Study A, plasma, single IV dose 50 mg/m^2, mean ± SD
[16] = 100 mg/m2, Study A, plasma, single IV dose 100 mg/m^2, mean ± SD
[17] = 150 mg/m2, Study A, plasma, single IV dose 150 mg/m^2, mean ± SD
[18] = 200 mg/m2, Study A, plasma, single IV dose 200 mg/m^2, mean ± SD
[19] = 250 mg/m2, Study A, plasma, single IV dose 250 mg/m^2, mean ± SD

Compound `C=CCNC1=C2C[C@@H](C)C[C@H](OC)[C@H](O)[C@@H](C)/C=C(\C)[C@H](OC(N)=O)[C@@H](OC)/C=C\C=C(/C)C(=O)NC(=CC1=O)C2=O` [17-AAG, 17-(allylamino)-17-demethoxygeldanamycin] has an AUC(0-t) [1, 7] of 6350 ± 432 ng·h/mL, an AUC(0-t) [1, 8] of 7050 ± 382 ng·h/mL and an AUC(0-t) [1, 9] of 6850 ± 69 ng·h/mL. It also gave a Cmax [1, 7] of 6310 ± 2200 ng/mL, a Cmax [1, 8] of 5910 ± 1130 ng/mL and a Cmax [1, 9] of 5250 ± 2780 ng/mL. The half-life [1, 7] was 41.4 ± 13.2 min, the half-life [1, 8] was 41.4 ± 14.4 min and the half-life [1, 9] was 48.6 ± 21 min. The Clearance ([1]; 1st administration) was 0.023 ± 0.002 L/m^2/h, the “DV (distribution volume)” value ([1]; 1st administration) was 0.029 ± 0.003 L/m^2 and the Clearance ([1]; 2nd administration) was 0.021 ± 0.001 L/m^2/h. For the same compound, the “DV (distribution volume)” value ([1]; 2nd administration) was 0.030 ± 0.002 L/m^2, the Clearance ([1]; 3rd administration) was 0.022 ± 0.002 L/m^2/h and the “DV (distribution volume)” value ([1]; 3rd administration) was 0.033 ± 0.003 L/m^2. The “Clearance from plasma, on average” value ([2]; Study A, average over doses 50–250 mg/m^2) was 0.026 ± 0.010 L/h/m^2, the “Dose-proportionality of Cmax and AUC” value ([2]; Study A, plasma, IV doses 50–250 mg/m^2) was “linear correlation between doses ranging from 50 to 200 mg/m^2; also recorded: dose-proportionate between the 50 and 200 mg/m^2 doses” and the Clearance [2, 10] was 0.04 ± 0.02 L/m^2/h. For the same compound, the “DV (distribution volume)” value [2, 10] was 0.03 ± 0.02 L/m^2, the Clearance [2, 11] was 0.03 ± 0.01 L/m^2/h and the “DV (distribution volume)” value [2, 11] was 0.02 ± 0.01 L/m^2. For the same compound, the Clearance [2, 12] was 0.02 ± 0.00 L/m^2/h, the “DV (distribution volume)” value [2, 12] was 0.02 ± 0.00 L/m^2 and the Clearance [2, 13] was 0.02 ± 0.00 L/m^2/h. For the same compound, the “DV (distribution volume)” value [2, 13] was 0.02 ± 0.00 L/m^2, the Clearance [2, 14] was 0.03 ± 0.01 L/m^2/h and the “DV (distribution volume)” value [2, 14] was 0.02 ± 0.00 L/m^2. The “maximum plasma concentration (Cmax), lower end of range” value ([2]; abstract, after single IV doses 50–250 mg/m^2) was 1405 ± 686 ng/mL, the AUC [2, 15] was 1480 ± 695 ng·h/mL and the Cmax ([2]; 50 mg/m2, Study A, plasma, single IV dose 50 mg/m^2, mean ± SD, read-out: Cmax) was 1410 ± 687 ng/mL. The half-life [2, 15] was 32.4 ± 1.8 min, the AUC [2, 16] was 4380 ± 1630 ng·h/mL and the Cmax ([2]; 100 mg/m2, Study A, plasma, single IV dose 100 mg/m^2, mean ± SD, read-out: Cmax) was 3760 ± 1420 ng/mL. It also gave a half-life [2, 16] of 36.6 ± 4.8 min, an AUC [2, 17] of 7930 ± 1550 ng·h/mL and a Cmax ([2]; 150 mg/m2, Study A, plasma, single IV dose 150 mg/m^2, mean ± SD, read-out: Cmax) of 6940 ± 1340 ng/mL. For the same compound, the half-life [2, 17] was 35.4 ± 2.4 min, the AUC [2, 18] was 11900 ng·h/mL and the Cmax ([2]; 200 mg/m2, Study A, plasma, single IV dose 200 mg/m^2, mean ± SD, read-out: Cmax) was 9440 ± 991 ng/mL. It also gave a half-life [2, 18] of 40.2 ± 3 min, an AUC [2, 19] of 9630 ± 2670 ng·h/mL and a Cmax ([2]; 250 mg/m2, Study A, plasma, single IV dose 250 mg/m^2, mean ± SD, read-out: Cmax) of 8610 ± 1060 ng/mL. For the same compound, the half-life [2, 19] was 34.2 ± 12.6 min, the Cmax ([2]; plasma, abstract, after single IV doses 50–250 mg/m^2, read-out: maximum plasma concentration (Cmax), upper end of range) was 9440 ± 991 ng/mL and the “Histopathological alterations in the lung and heart” value (healthy dogs) was “no histopathological alterations”. The “Solubility in Dimethyl Sulfoxide (DMSO)” value ([3]; according to PubChem) was 100 mM (≈ 58.6 mg/mL), the Solubility in ethanol ([3]; according to PubChem) was 10 mM (≈ 5.86 mg/mL) and the Aqueous solubility ([3]; aqueous) was “approximately 0.01 mg/mL”. For the same compound, the maximum plasma half-life [4] was 264 min, the “Concentration in subcutaneous interstitial fluid (tissue cages)” value ([5]; Study B, 150 mg/m^2 IV, at all times evaluated / at 48 h intervals) was roughly 100 ng/mL and the AUC(0-t) ([5]; 150 mg/m2, AUC 0–8 h, Study B, 1st administration of 150 mg/m^2 IV) was 2660 ± 437 ng·h/mL. It also gave an AUC(0-t) ([5]; 150 mg/m2, AUC 0–8 h, Study B, 2nd administration of 150 mg/m^2 IV) of 2910 ± 686 ng·h/mL, an AUC(0-t) ([5]; 150 mg/m2, AUC 0–8 h, Study B, 3rd administration of 150 mg/m^2 IV) of 2730 ± 1440 ng·h/mL and a Cmax ([5]; 150 mg/m2, Study B, 1st administration of 150 mg/m^2 IV) of 704 ± 332 ng/mL. For the same compound, the Cmax ([5]; 150 mg/m2, Study B, 2nd administration of 150 mg/m^2 IV) was 736 ± 294 ng/mL, the Cmax ([5]; 150 mg/m2, Study B, 3rd administration of 150 mg/m^2 IV) was 726 ± 401 ng/mL and the AUC(0-t) ([5]; 150 mg/m2, Study B, 1st administration of 150 mg/m^2 IV, read-out: AUC 0–4 h) was 1820 ± 430 ng·h/mL. The AUC(0-t) ([5]; 150 mg/m2, Study B, 1st administration of 150 mg/m^2 IV, read-out: AUC 0–6 h) was 2300 ± 409 ng·h/mL, the AUC(0-t) ([5]; 150 mg/m2, Study B, 1st administration of 150 mg/m^2 IV, read-out: AUC 0–24 h) was 4760 ± 333 ng·h/mL and the AUC(0-t) ([5]; 150 mg/m2, Study B, 1st administration of 150 mg/m^2 IV, read-out: AUC 0–47.5 h) was 7380 ± 1360 ng·h/mL. It also gave a half-life ([5]; 150 mg/m2, Study B, 1st of three IV administrations of 150 mg/m^2 at 48 h intervals) of 38 ± 16 h, an AUC(0-t) ([5]; 150 mg/m2, Study B, 2nd administration of 150 mg/m^2 IV, read-out: AUC 0–4 h) of 1940 ± 618 ng·h/mL and an AUC(0-t) ([5]; 150 mg/m2, Study B, 2nd administration of 150 mg/m^2 IV, read-out: AUC 0–6 h) of 2550 ± 638 ng·h/mL. It also gave an AUC(0-t) ([5]; 150 mg/m2, Study B, 2nd administration of 150 mg/m^2 IV, read-out: AUC 0–24 h) of 4070 ± 700 ng·h/mL, an AUC(0-t) ([5]; 150 mg/m2, Study B, 2nd administration of 150 mg/m^2 IV, read-out: AUC 0–47.5 h) of 7050 ± 2190 ng·h/mL and a half-life ([5]; 150 mg/m2, Study B, 2nd of three IV administrations of 150 mg/m^2 at 48 h intervals) of 28 ± 9 h. For the same compound, the AUC(0-t) ([5]; 150 mg/m2, Study B, 3rd administration of 150 mg/m^2 IV, read-out: AUC 0–4 h) was 895 ± 408 ng·h/mL, the AUC(0-t) ([5]; 150 mg/m2, Study B, 3rd administration of 150 mg/m^2 IV, read-out: AUC 0–6 h) was 2040 ± 1100 ng·h/mL and the AUC(0-t) ([5]; 150 mg/m2, Study B, 3rd administration of 150 mg/m^2 IV, read-out: AUC 0–24 h) was 3500 ± 2420 ng·h/mL. The half-life [6] was 180 to 360 min.

— publication PMC11206245 (Pharmaceuticals, 2024)
